Data: PMC10216605, “Developing In Vitro Models to Define the Role of Direct Mitochondrial Toxicity in Frequently Reported Drug-Induced Rhabdomyolysis” (Biomedicines, 2023)
Structures can show the parent of a compound that is named as a salt. Where two headings read alike, the source gives them in different places.

What was measured:
[1] = FAERS analysis of reported rhabdomyolysis cases per suspect drug; conditions: for (%) of total rhabdomyolysis cases / Number of Rhabdomyolysis Cases / Number of Rhabdomyolysis Cases (n = 6583): FAERS 2004 to 31 March 2020; for (%) of total rhabdomyolysis cases: of 27,140 cases; for Number of Rhabdomyolysis Cases: total 27,140 rhabdomyolysis cases, some cases with more than one suspected drug; for ROR (reported odds ratio): rhabdomyolysis with suspected drug vs all other drugs in FAERS; for Number of Death Cases (n = 576): monotherapy rhabdomyolysis cases with fatal outcome; for (%) of monotherapy rhabdomyolysis cases: of 6583 cases; for Number of Rhabdomyolysis Cases (n = 6583): suspected drug reported as a single drug used (monotherapy)
Procedure: (§1) Due to the quarterly updating of the database by the FDA, the searches were performed using the term “rhabdomyolysis” on one occasion to ensure the data were extracted at that specified period. All individual files were downloaded and saved from this one timepoint to specify the analysis period used in this study. Further refinement was performed using Microsoft Excel to extract only cases where the suspect drug was reported as a monotherapy, using the generic name of the suspect drugs. To ensure data accuracy, any case reported by a consumer or company underwent further checks to ensure it had not been previously reported by a healthcare provider, by confirming that no duplication of case ID was present.

L6 cells [2] = assay: Acute metabolic switch assay (cellular ATP content, glucose vs galactose media) in L6 differentiated myotubes; conditions: for IC50-ATPglu/IC50-ATPgal: ratio ≥ 2 = mitotoxic
Procedure: They were then seeded into collagen-coated wells (50 µg/mL in 0.02 M of acetic acid) at a density of 16,000 cells/100 μL/well (96 well plates) and 10,000 cells/100 μL/well (XF 96-well cell culture microplates). The cells were next incubated for 24 h in complete growth medium to promote adherence, after which the growth medium was removed and the cells washed twice with 1× HBSS. The L6 myoblasts were then cultured in differentiation medium consisting of high-glucose DMEM (25 mM) supplemented with L-glutamine (4 mM), sodium pyruvate (1 mM), HEPES (5 mM), and horse serum (2% v/v). Fresh differentiation medium was provided every 48 h for 7 days.
On the day of the assay, the media on the differentiated myotubes were replaced with either serum-free high-glucose (DMEM, 25 mM of glucose, 4 mM of L-glutamine, 1 mM of sodium pyruvate, and 5 mM of HEPES) or serum-free galactose (DMEM, 10 mM of galactose, 6 mM of L-glutamine, 1 mM of sodium pyruvate, and 5 mM of HEPES) media (100 µL) for 2 h (37 °C, 5% CO2). The glucose and galactose media were removed and replaced with drug-dosing solutions in either glucose or galactose media as appropriate, before incubation (2 h, 37 °C, 5% CO2). […] Vehicle control was included in each experiment.
The cellular ATP content was measured using a bioluminescence assay kit, alongside the concomitant measurement of protein using a bicinchoninic acid (BCA) assay kit to normalise ATP data to the total protein. Briefly, the cells were lysed using ATP lysis buffer (50 µL/well) and the plate was shaken (5 min). According to the manufacturer’s instructions, 40 µL of ATP reagent was added to each well containing 5 µL of cell lysate in a white 96-well plate. The […] luminescence signal was measured immediately using a plate reader (Varioskan, Thermo Scientific, Schaumburg, IL USA).

[3] = human
Procedure: as §1

L6 cells [4] = conditions: 6 h exposure
Procedure: The mitochondrial stress test allowed confirmation of mitotoxicity and further identification of the specific mechanisms through quantification of OXPHOS parameters: basal respiration (BR), ATP-linked respiration (ALR), and spare respiratory capacity (SRC). On the day of the assay, for the analysis of the acute injection of the drug on differentiated myotubes, the differentiation media was replaced with 175 µL of unbuffered Seahorse Assay media supplemented with 25 mM of glucose, 4 mM of L-glutamine, 1 mM of sodium pyruvate, and 5 mM of HEPES pre-warmed to 37 °C, then incubated in a CO2 free incubator at 37 °C for 1 h. Alternately, in the pre-treatment strategy, differentiated myotubes were pre-treated with the drug for 5 h in differentiation medium, then transferred to a CO2-free incubator at 37 °C for 1 h. Next, the differentiation media were replaced with 175 µL of unbuffered Seahorse Assay media supplemented with the constituents stated above. Briefly, using the XF^e96 instrument (Seahorse extracellular flux analyser, Agilent Technologies, Santa Clara, CA, USA), the oxygen partial pressure in each well was allowed to reach equilibrium for 10 min. The oxygen consumption rate (OCR) was measured three times at baseline; then, there was a 3 min mix for each measurement followed by a 3 min wait. […] In the acute injection method, the drug injection was only performed at the end of the basal measurement cycles, followed by the mitochondrial inhibitors described above. The duration of the assay was 120 min (acute injection) and 90 min (pre-treatment strategy). From each mitochondrial stress test was determined the OCR parameters of non-mitochondrial respiration (NMR = lowest measurement after rotenone/antimycin A); basal respiration (BR = last measurement before oligomycin − NMR); proton-leak (PL = BR − lowest respiration after oligomycin); ATP-linked respiration (ALR = BR − PL); maximum respiratory capacity (MRC = highest measurement after FCCP − NMR); and spare respiratory capacity (SRC = MRC − BR) [42, 43].

[5] = Rattus norvegicus, L6, 2 h, read-out: ATP IC50 Galactose
[6] = Rattus norvegicus, L6, 2 h, read-out: ATP IC50 Glucose

CC(=O)Nc1ccc(O)cc1 [Acetaminophen]
(%) of total rhabdomyolysis cases [1]: 1.7% | Number of Rhabdomyolysis Cases [1]: 449 | ROR (reported odds ratio) [1]: 0.3

Cc1nnc2n1-c1ccc(Cl)cc1C(c1ccccc1)=NC2 [Alprazolam]
(%) of total rhabdomyolysis cases [1]: 1.1% | Number of Rhabdomyolysis Cases [1]: 290 | ROR (reported odds ratio) [1]: 0.4

O=C1CCc2ccc(OCCCCN3CCN(c4cccc(Cl)c4Cl)CC3)cc2N1 [Aripiprazole]
(%) of total rhabdomyolysis cases [1]: 1.5% | Number of Rhabdomyolysis Cases [1]: 419 | ROR (reported odds ratio) [1]: 0.4

CC(=O)Oc1ccccc1C(=O)O [Aspirin]
(%) of total rhabdomyolysis cases [1]: 1.2% | Number of Rhabdomyolysis Cases [1]: 313 | ROR (reported odds ratio) [1]: 0.2

CC(C)c1c(C(=O)Nc2ccccc2)c(-c2ccccc2)c(-c2ccc(F)cc2)n1CC[C@@H](O)C[C@@H](O)CC(=O)O [Atorvastatin acid]
IC50-ATPglu/IC50-ATPgal (L6 cells [2]; L6 cells, 2 h exposure): ~1 (n/d) | IC50-ATPglu/IC50-ATPgal (L6 cells [2]; L6 cells, 2 h exposure, listed as atorvastatin acid): 1 | IC50 (L6 cells [2]; read-out: ATP IC50 Galactose, L6 cells, 2 h exposure, galactose serum-free media, mean ± S.D. (n = 3)): > 300 µM | IC50 (L6 cells [2]; read-out: ATP IC50 Glucose, L6 cells, 2 h exposure, glucose serum-free media, mean ± S.D. (n = 3)): > 300 µM

CC(C)c1c(C(=O)Nc2ccccc2)c(-c2ccccc2)c(-c2ccc(F)cc2)n1CC[C@@H](O)C[C@@H](O)CC(=O)O [Atorvastatin]
(%) of total rhabdomyolysis cases [1]: 12.2% | Number of Rhabdomyolysis Cases [1]: 3307 | Number of Death Cases (n = 576) [1]: 169 | (%) of monotherapy rhabdomyolysis cases [1]: 21.1% | ROR (reported odds ratio) [1]: 4.3 | Number of Rhabdomyolysis Cases (n = 6583) [1]: 1386

CC[C@H]1OC(=O)[C@H](C)[C@@H](O[C@H]2C[C@@](C)(OC)[C@@H](O)[C@H](C)O2)[C@H](C)[C@@H](O[C@@H]2O[C@H](C)C[C@H](N(C)C)[C@H]2O)[C@](C)(OC)C[C@@H](C)C(=O)[C@H](C)[C@@H](O)[C@]1(C)O [Clarithromycin]
(%) of total rhabdomyolysis cases [1]: 1.6% | Number of Rhabdomyolysis Cases [1]: 427 | ROR (reported odds ratio) [1]: 1.2

CN1CCN(C2=Nc3cc(Cl)ccc3Nc3ccccc32)CC1 [Clozapine]
(%) of total rhabdomyolysis cases [1]: 1.1% | Number of Rhabdomyolysis Cases [1]: 286 | Number of Death Cases (n = 576) [1]: 12 | (%) of monotherapy rhabdomyolysis cases [1]: 1.8% | Number of Rhabdomyolysis Cases (n = 6583) [1]: 116

CCCCCCCCCC(=O)N[C@@H](Cc1c[nH]c2ccccc12)C(=O)N[C@H](CC(N)=O)C(=O)N[C@@H](CC(=O)O)C(=O)N[C@@H]1C(=O)NCC(=O)N[C@@H](CCCN)C(=O)N[C@@H](CC(=O)O)C(=O)N[C@H](C)C(=O)N[C@@H](CC(=O)O)C(=O)NCC(=O)N[C@H](CO)C(=O)N[C@@H]([C@H](C)CC(=O)O)C(=O)N[C@@H](CC(=O)c2ccccc2N)C(=O)O[C@@H]1C [Daptomycin]
IC50-ATPglu/IC50-ATPgal (L6 cells [2]; L6 cells, 2 h exposure): ~1 (n/d) | IC50-ATPglu/IC50-ATPgal (L6 cells [2]; L6 cells, 2 h exposure, listed as daptomycin): 1 | IC50 (L6 cells [2]; [5]): > 100 µM | IC50 (L6 cells [2]; [6]): > 100 µM | (%) of monotherapy rhabdomyolysis cases [3]: 3.5% | (%) of total rhabdomyolysis cases [3]: 1.4% | Number of Rhabdomyolysis Cases [3]: 380 | Number of Rhabdomyolysis Cases (n = 6583) [3]: 227 | ROR (reported odds ratio) [3]: 3.2 | Number of Death Cases (n = 576) [1]: 18

O=C1[C@H](CC[C@H](O)c2ccc(F)cc2)[C@@H](c2ccc(O)cc2)N1c1ccc(F)cc1 [Ezetimibe]
IC50-ATPglu/IC50-ATPgal (L6 cells [2]; L6 cells, 2 h exposure): ~1 (n/d) | IC50-ATPglu/IC50-ATPgal (L6 cells [2]; L6 cells, 2 h exposure, listed as ezetimibe): 1 | IC50 (L6 cells [2]; [5]): > 300 µM | IC50 (L6 cells [2]; [6]): > 300 µM | (%) of total rhabdomyolysis cases [1]: 1.9% | Number of Rhabdomyolysis Cases [1]: 501 | Number of Death Cases (n = 576) [1]: 6 | (%) of monotherapy rhabdomyolysis cases [1]: 2.5% | ROR (reported odds ratio) [1]: 2.6 | Number of Rhabdomyolysis Cases (n = 6583) [1]: 166

NS(=O)(=O)c1cc(C(=O)O)c(NCc2ccco2)cc1Cl [Furosemide]
(%) of total rhabdomyolysis cases [1]: 1.8% | Number of Rhabdomyolysis Cases [1]: 480 | ROR (reported odds ratio) [1]: 0.8

Cc1ccc(C)c(OCCCC(C)(C)C(=O)O)c1 [Gemfibrozil]
(%) of total rhabdomyolysis cases [1]: 1.6% | Number of Rhabdomyolysis Cases [1]: 442 | ROR (reported odds ratio) [1]: 15.0 | ROR (reported odds ratio) ([1]; listed as gemfibrozil): 15

O=C(CCCN1CCC(O)(c2ccc(Cl)cc2)CC1)c1ccc(F)cc1 [Haloperidol]
(%) of total rhabdomyolysis cases [1]: 1.1% | Number of Rhabdomyolysis Cases [1]: 310 | ROR (reported odds ratio) [1]: 1.3

Nc1nnc(-c2cccc(Cl)c2Cl)c(N)n1 [Lamotrigine]
(%) of total rhabdomyolysis cases [1]: 1.2% | Number of Rhabdomyolysis Cases [1]: 314 | ROR (reported odds ratio) [1]: 0.3

CC[C@@H](C(N)=O)N1CCCC1=O [Levetiracetam]
IC50-ATPglu/IC50-ATPgal (L6 cells [2]; L6 cells, 2 h exposure): ~1 (n/d) | IC50-ATPglu/IC50-ATPgal (L6 cells [2]; L6 cells, 2 h exposure, listed as levetiracetam): 1 | IC50 (L6 cells [2]; [5]): > 300 µM | IC50 (L6 cells [2]; [6]): > 300 µM | (%) of total rhabdomyolysis cases [1]: 2.2% | Number of Rhabdomyolysis Cases [1]: 588 | Number of Death Cases (n = 576) [1]: 8 | (%) of monotherapy rhabdomyolysis cases [1]: 5.9% | ROR (reported odds ratio) [1]: 0.9 | Number of Rhabdomyolysis Cases (n = 6583) [1]: 386

CN(C)C(=N)N=C(N)N [Metformin]
(%) of total rhabdomyolysis cases [1]: 1.8% | Number of Rhabdomyolysis Cases [1]: 478 | ROR (reported odds ratio) [1]: 0.4

Cc1cc2c(s1)Nc1ccccc1N=C2N1CCN(C)CC1 [Olanzapine]
Number of Death Cases (n = 576) [1]: 23

COc1ccc2[nH]c([S+]([O-])Cc3ncc(C)c(OC)c3C)nc2c1 (centres unmarked) [Omeprazole]
(%) of total rhabdomyolysis cases [1]: 1.3% | Number of Rhabdomyolysis Cases [1]: 363 | ROR (reported odds ratio) [1]: 0.5

CC(C)C[C@H](CN)CC(=O)O [Pregabalin]
IC50 (L6 cells [2]; [6]): > 300 µM | Classification from pattern of changes in BR, ALR and SRC (L6 cells [4]): direct inhibitors of the electron transport chain | (%) of total rhabdomyolysis cases [1]: 1.6% | Number of Rhabdomyolysis Cases [1]: 442 | Number of Death Cases (n = 576) [1]: 13 | (%) of monotherapy rhabdomyolysis cases [1]: 2.0% | Number of Rhabdomyolysis Cases (n = 6583) [1]: 132

CC(C)c1cccc(C(C)C)c1O [Propofol]
Mitotoxicity classification in acute metabolic switch assay (L6 cells [2]): multi-mechanistic | IC50 (L6 cells [2]; [5]): 242 ± 13.4 µM | IC50 (L6 cells [2]; [6]): > 300 µM | Classification from pattern of changes in BR, ALR and SRC (L6 cells [4]): direct inhibitors of the electron transport chain | (%) of total rhabdomyolysis cases [1]: 1.6% | Number of Rhabdomyolysis Cases [1]: 434 | Number of Death Cases (n = 576) [1]: 70 | (%) of monotherapy rhabdomyolysis cases [1]: 2.7% | ROR (reported odds ratio) [1]: 2.2 | Number of Rhabdomyolysis Cases (n = 6583) [1]: 179

OCCOCCN1CCN(C2=Nc3ccccc3Sc3ccccc32)CC1 [Quetiapine]
(%) of total rhabdomyolysis cases [1]: 2.8% | Number of Rhabdomyolysis Cases [1]: 761 | Number of Death Cases (n = 576) [1]: 26 | (%) of monotherapy rhabdomyolysis cases [1]: 3.0% | Number of Rhabdomyolysis Cases (n = 6583) [1]: 199

CC(C)c1nc(N(C)S(C)(=O)=O)nc(-c2ccc(F)cc2)c1/C=C/[C@@H](O)C[C@@H](O)CC(=O)O [Rosuvastatin]
IC50-ATPglu/IC50-ATPgal (L6 cells [2]; L6 cells, 2 h exposure): ~1 (n/d) | IC50-ATPglu/IC50-ATPgal (L6 cells [2]; L6 cells, 2 h exposure, listed as rosuvastatin): 1 | IC50 (L6 cells [2]; [5]): > 300 µM | IC50 (L6 cells [2]; [6]): > 300 µM | (%) of total rhabdomyolysis cases [1]: 7.4% | Number of Rhabdomyolysis Cases [1]: 2008 | Number of Death Cases (n = 576) [1]: 47 | (%) of monotherapy rhabdomyolysis cases [1]: 17.0% | ROR (reported odds ratio) [1]: 2.9 | Number of Rhabdomyolysis Cases (n = 6583) [1]: 1122

CN[C@H]1CC[C@@H](c2ccc(Cl)c(Cl)c2)c2ccccc21 [Sertraline]
(%) of total rhabdomyolysis cases [1]: 1.3% | Number of Rhabdomyolysis Cases [1]: 347 | ROR (reported odds ratio) [1]: 0.4

CCC(C)(C)C(=O)O[C@H]1C[C@@H](C)C=C2C=C[C@H](C)[C@H](CC[C@@H](O)C[C@@H](O)CC(=O)O)[C@H]21 [Simvastatin acid, Simvastatin hydroxy acid ammonium salt]
IC50-ATPglu/IC50-ATPgal (L6 cells [2]; L6 cells, 2 h exposure): ~1 (n/d) | IC50-ATPglu/IC50-ATPgal (L6 cells [2]; L6 cells, 2 h exposure, listed as simvastatin acid): 1 | IC50 (L6 cells [2]; [5]): > 300 µM | IC50 (L6 cells [2]; [6]): > 300 µM

COc1ccc(C(CN(C)C)C2(O)CCCCC2)cc1 (centres unmarked) [Venlafaxine]
(%) of total rhabdomyolysis cases [1]: 1.6% | Number of Rhabdomyolysis Cases [1]: 425 | ROR (reported odds ratio) [1]: 0.5
